Assay [1] has as its target T1, Vasoactive intestinal polypeptide receptor 2 (Homo sapiens, UniProt P41587).
T1 sequence (P41587 whole entry): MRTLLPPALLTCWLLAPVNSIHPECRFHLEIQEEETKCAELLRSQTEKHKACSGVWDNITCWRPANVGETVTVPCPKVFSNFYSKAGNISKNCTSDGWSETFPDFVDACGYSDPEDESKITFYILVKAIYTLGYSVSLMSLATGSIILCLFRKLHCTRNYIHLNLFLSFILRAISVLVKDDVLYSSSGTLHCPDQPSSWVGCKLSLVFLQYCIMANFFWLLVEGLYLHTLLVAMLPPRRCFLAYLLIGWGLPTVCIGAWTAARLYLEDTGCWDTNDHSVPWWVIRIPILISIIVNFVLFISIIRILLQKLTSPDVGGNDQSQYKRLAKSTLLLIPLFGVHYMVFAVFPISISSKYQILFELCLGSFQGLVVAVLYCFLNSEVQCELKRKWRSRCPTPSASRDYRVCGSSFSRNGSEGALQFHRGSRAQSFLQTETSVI
As to the kind of experiment: Antagonist activity at recombinant human N-terminal signal peptide/FLAG epitope-tagged Rluc8-fused VIPR2 expressed in HEK293 cells assessed as inhibition of VIP-induced human mVenus-beta-arrestin2 binding preincubated for 5 mins with luciferin, coelenterazine H followed by VIP addition measured after 5 mins by BRET assay. The class given is cell-based. A general note: In BRET a luciferase serves as donor, and the signal depends on an acceptor being close.

Assay [2] deals with T2, Vasoactive intestinal polypeptide receptor 2 (Homo sapiens) (UniProt P41587).
T2 sequence (whole entry): T1 sequence (P41587 whole entry)
Description: Antagonist activity at recombinant human N-terminal signal peptide/FLAG epitope-tagged Rluc8-fused VIPR2 expressed in HEK293 cells assessed as inhibition of VIP-induced human mVenus-beta-arrestin2 binding at 0.5 uM preincubated for 5 mins with luciferin, coelenterazine H followed by VIP addition measured after 5 mins by BRET assay relative to control. The class given is cell-based.

The target in assay [3] is T1, Vasoactive intestinal polypeptide receptor 2. Description: Antagonist activity at human VIPR2 expressed in HEK293 cells assessed as inhibition of VIP-induced cAMP accumulation incubated for 30 mins by HTRF assay. Type of assay: functional, cell-based. A general note: Changes in cAMP serve as a functional read-out for many G protein-coupled receptors.
For assay [4], the target named is T2, Vasoactive intestinal polypeptide receptor 2 (Homo sapiens). Description: Antagonist activity at recombinant human N-terminal signal peptide/FLAG epitope-tagged VIPR2 expressed in HEK293 cells co-expressing CAMYEL assessed as inhibition of VIP-induced cAMP accumulation at 5 uM preincubated for 5 mins with luciferin, coelenterazine H followed by VIP addition measured after 5 mins by BRET assay relative to control. Type of assay: functional, cell-based.

The target is the same in assay [5]. As to the kind of experiment: Antagonist activity at recombinant human N-terminal signal peptide/FLAG epitope-tagged Rluc8-fused VIPR2 expressed in HEK293 cells assessed as inhibition of VIP-induced human mVenus-beta-arrestin2 binding at 1 uM preincubated for 5 mins with luciferin, coelenterazine H followed by VIP addition measured after 5 mins by BRET assay relative to control. Type of assay: cell-based.

The target is the same in assay [6]. Description: Antagonist activity at recombinant human N-terminal signal peptide/FLAG epitope-tagged VIPR2 expressed in HEK293 cells co-expressing CAMYEL assessed as inhibition of VIP-induced cAMP accumulation at 0.5 uM preincubated for 5 mins with luciferin, coelenterazine H followed by VIP addition measured after 5 mins by BRET assay relative to control. The class given is functional, cell-based.

The target in assay [7] is T1, Vasoactive intestinal polypeptide receptor 2. As to the kind of experiment: Antagonist activity at human VIPR2 expressed in HEK293 cells assessed as inhibition of VIP-induced beta-arrestin 2 binding incubated for 2 hrs by beta-galactosidase assay. Type of assay: cell-based.
For assay [8], the target named is T2, Vasoactive intestinal polypeptide receptor 2 (Homo sapiens). Description: Antagonist activity at recombinant human N-terminal signal peptide/FLAG epitope-tagged Rluc8-fused VIPR2 expressed in HEK293 cells assessed as inhibition of VIP-induced human mVenus-beta-arrestin2 binding at 5 uM preincubated for 5 mins with luciferin, coelenterazine H followed by VIP addition measured after 5 mins by BRET assay relative to control. Type of assay: cell-based.

The target is the same in assay [9]. As to the kind of experiment: Antagonist activity at recombinant human N-terminal signal peptide/FLAG epitope-tagged VIPR2 expressed in HEK293 cells co-expressing CAMYEL assessed as inhibition of VIP-induced cAMP accumulation at 1 uM preincubated for 5 mins with luciferin, coelenterazine H followed by VIP addition measured after 5 mins by BRET assay relative to control. Type of assay: functional, cell-based.

Assay [10] shares this target. As to the kind of experiment: Antagonist activity at recombinant human N-terminal signal peptide/FLAG epitope-tagged VIPR2 expressed in […] cells co-expressing CAMYEL assessed as inhibition of VIP-induced cAMP accumulation preincubated for 5 mins with luciferin, coelenterazine H followed by VIP addition measured after 5 mins by BRET assay. Type of assay: functional, cell-based.

Activity calls are given as the source filed them. The calls are words filed in the database; no cut-off is given here.

`O=C(N[C@H]1c2ccccc2C[C@H]1O)[C@H](Cc1ccccc1)C[C@H](O)CNS(=O)(=O)c1ccc(Cl)cc1`: the 50% inhibitory concentration (IC50) (commonly the concentration that inhibits the measured activity by half) in assay [1] lay in the range of 0.28 to 2.02 µM.

Take `O=C(N[C@H]1c2ccccc2C[C@H]1O)[C@H](Cc1ccccc1)C[C@H](O)CNS(=O)(=O)c1ccc([N+](=O)[O-])cc1`: the inhibition (in general, the change of the read-out against control, counted positive when it falls) in assay [2] was 2.6 to 84.5%; in [4], 97.8 to 100%; in [5], -2.6 to 74.6%; in [6], 38.7 to 74.3%; in assay [8], 29.3 to 92%; in assay [9] it was 70.9 to 86.1%. The IC50 in assay [3] came to 3.8 µM; in assay [7], 2.3 µM.

Regarding `CO[C@@H]1Cc2ccccc2[C@@H]1NC(=O)[C@H](Cc1ccccc1)C[C@H](O)CNS(=O)(=O)c1ccc(C(C)=O)cc1`, in [1], the IC50 came to 5 µM. Moreover, the inhibition in assay [2] was 76.2%.

Regarding `CO[C@@H]1Cc2ccccc2[C@@H]1NC(=O)[C@H](Cc1ccccc1)C[C@H](O)CNS(=O)(=O)c1ccc(Cl)cc1`, the IC50 in assay [1] was 4 µM. Besides, in assay [2], the inhibition came to 13.3%.

Take `CO[C@H]1Cc2ccccc2[C@@H]1NC(=O)[C@H](Cc1ccccc1)C[C@H](O)CNS(=O)(=O)c1ccc2c(c1)OCCO2`: the concentration for half-maximal inhibition (IC50) in assay [1] worked out at 6 µM. The inhibition in assay [2] turned out to be 28.1%.

For the compound `CC(=O)c1ccc(S(=O)(=O)NC[C@@H](O)C[C@@H](Cc2ccccc2)C(=O)N[C@H]2c3ccccc3C[C@H]2O)cc1`, the inhibition in assay [2] is 58.3 to 92.3%; in assay [4], 96%; in [5], 78%; in [6], 38.6%; in [8], 88.7%; in assay [9], 61.1%. In assay [10], the inhibition result was “Active”.

On to `O=C(N[C@H]1c2ccccc2C[C@H]1O)[C@H](Cc1ccccc1)C[C@H](O)CNS(=O)(=O)c1ccc2c(c1)OCCO2`, for which the IC50 in [1] lay within 0.206 to 33.7 µM.

For the compound `Cc1ccc(S(=O)(=O)NC[C@@H](O)C[C@@H](Cc2ccccc2)C(=O)N[C@H]2c3ccccc3C[C@H]2O)cc1`, the half-inhibitory concentration (IC50) in assay [1] lay in the range of 1.18 to 1.98 µM. Also, the inhibition is 62.3 to 94.1% in assay [2]; 98.2% in assay [4]; 80.4% in assay [5]; 42.2% in assay [6]; 90% in [8]; 63.5% in [9].

As for `CCc1ccc(S(=O)(=O)NC[C@@H](O)C[C@@H](Cc2ccccc2)C(=O)N[C@H]2c3ccccc3C[C@H]2O)cc1`, in assay [1], the 50% inhibitory concentration (IC50) lay in the range of 1.13 to 45.8 µM.

Turning to `CCCCNC(=O)[C@@H](Cc1ccccc1)C[C@H](O)CNS(=O)(=O)c1ccc([N+](=O)[O-])cc1`, in assay [1], the IC50 was 1800 µM. Also, the inhibition was 13.4 to 26.8% in assay [2]; 6.2% in assay [4]; 20.4% in assay [5]; -1.5% in assay [6]; 20.7% in assay [8]; 0.6% in [9].

`O=C(NC1CCCc2ccccc21)[C@H](Cc1ccccc1)C[C@H](O)CNS(=O)(=O)c1ccc([N+](=O)[O-])cc1` (stereo partly drawn): the inhibition was 3.3 to 13.8% in [2]; 17.5% in assay [4]; 7.4% in [5]; 8.8% in assay [6]; 10.2% in [8]; 12.4% in assay [9].

On to `NC(=O)[C@@H](Cc1ccccc1)C[C@H](O)CNS(=O)(=O)c1ccc([N+](=O)[O-])cc1`, for which the inhibition in [2] is 3.5 to 8.35%; in [4], 9.7%; in [5], -9.8%; in [6], 14.6%; in [8], 7%; in assay [9], 12.6%.

Turning to `O=C(NCCc1cccc(Cl)c1)[C@H](Cc1ccccc1)C[C@H](O)CNS(=O)(=O)c1ccc([N+](=O)[O-])cc1`, the inhibition in assay [2] is -6.7 to -0.4%; in [4], 7.8%; in assay [5], -7.8%; in assay [6] it was -5.5%; in assay [8], -8.6%; in assay [9], -3.4%.

`O=C(Cc1cccc(Cl)c1)NC[C@@H](O)C[C@@H](Cc1ccccc1)C(=O)N[C@H]1c2ccccc2C[C@H]1O`: the inhibition was 11.3 to 21.9% in assay [2]; 26.5% in [4]; 20.1% in assay [5]; 14.4% in assay [6]; 17.2% in [8]; 16% in assay [9].

On to `O=C(NC[C@@H](O)C[C@@H](Cc1ccccc1)C(=O)N[C@H]1c2ccccc2C[C@H]1O)c1ccc2ccccc2c1`, for which the inhibition is -2.9 to 16.6% in assay [2]; 23.5% in assay [4]; 11.1% in assay [5]; 13.2% in assay [6]; 9.7% in [8]; 16.3% in assay [9].

The values above are taken from ChEMBL document CHEMBL3879914, “Inhibitors of central nervous system vasoactive inhibitory peptide receptor 2” (2014).
